Results reported in paper PMC4208647, “Essential role of vesicular nucleotide transporter in vesicular storage and release of nucleotides in platelets” (Physiological Reports, 2014).
Where two headings read alike, the source gives them in different places.

Columns and labels:
Format in all cases: biochemical
[1] = target: T1, VEAT (vesicular excitatory amino acid transporter) (Mus musculus, UniProt Q8BN82); test: inhibition of valinomycin-evoked radiolabelled substrate uptake into proteoliposomes
T1 construct: gene Slc17a5; recombinant, expressed in insect cells or E. coli, Ni-NTA purified, reconstituted in asolectin liposomes
T1 sequence (Q8BN82 1-495): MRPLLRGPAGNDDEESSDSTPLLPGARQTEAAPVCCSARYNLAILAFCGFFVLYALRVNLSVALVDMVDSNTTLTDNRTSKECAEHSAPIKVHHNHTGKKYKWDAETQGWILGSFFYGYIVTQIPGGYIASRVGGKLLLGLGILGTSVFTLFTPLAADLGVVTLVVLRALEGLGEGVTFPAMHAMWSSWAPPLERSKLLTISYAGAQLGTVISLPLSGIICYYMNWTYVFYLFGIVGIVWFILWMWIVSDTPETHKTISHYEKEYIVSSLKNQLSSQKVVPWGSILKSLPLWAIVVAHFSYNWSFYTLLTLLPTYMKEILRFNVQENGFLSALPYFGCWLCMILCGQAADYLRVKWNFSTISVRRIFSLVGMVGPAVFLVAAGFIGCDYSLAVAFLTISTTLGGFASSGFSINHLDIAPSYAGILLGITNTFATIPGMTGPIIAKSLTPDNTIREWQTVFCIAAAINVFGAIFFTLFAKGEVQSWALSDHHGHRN
Excerpt: inhibition of valinomycin-evoked radiolabelled substrate uptake into proteoliposomes on VEAT (vesicular excitatory amino acid transporter)

[2] = target: T2, VMAT2 (vesicular monoamine transporter 2) (Rattus norvegicus, UniProt Q01827); test: inhibition of ATP-driven radiolabelled substrate uptake into proteoliposomes with F-ATPase
T2 construct: gene Slc18a2; recombinant, expressed in insect cells or E. coli, Ni-NTA purified, co-reconstituted with bacterial F-ATPase in liposomes
Excerpt: inhibition of ATP-driven radiolabelled substrate uptake into proteoliposomes with F-ATPase on VMAT2 (vesicular monoamine transporter 2)

[3] = target: T3, VNUT (vesicular nucleotide transporter, SLC17A9 protein) (Homo sapiens, UniProt Q9BYT1); test: inhibition of valinomycin-evoked radiolabelled substrate uptake into proteoliposomes
T3 construct: recombinant, expressed in insect cells or E. coli, octylglucoside-solubilized, Ni-NTA purified, reconstituted in asolectin liposomes
T3 sequence (Q9BYT1 1-436): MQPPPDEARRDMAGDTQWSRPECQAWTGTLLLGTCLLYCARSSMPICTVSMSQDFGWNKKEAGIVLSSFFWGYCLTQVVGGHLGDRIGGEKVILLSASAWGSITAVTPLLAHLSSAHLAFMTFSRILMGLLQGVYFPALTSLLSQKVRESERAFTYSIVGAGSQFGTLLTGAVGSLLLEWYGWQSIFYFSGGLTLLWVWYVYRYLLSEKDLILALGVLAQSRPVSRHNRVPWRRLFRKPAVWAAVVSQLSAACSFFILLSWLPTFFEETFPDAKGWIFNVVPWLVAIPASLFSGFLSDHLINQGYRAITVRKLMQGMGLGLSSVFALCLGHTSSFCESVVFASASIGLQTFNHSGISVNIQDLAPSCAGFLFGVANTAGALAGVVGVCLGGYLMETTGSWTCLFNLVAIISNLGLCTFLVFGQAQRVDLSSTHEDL

[4] = target: T4, VAChT (vesicular acetylcholine transporter) (Homo sapiens, UniProt Q16572); test: inhibition of ATP-driven radiolabelled substrate uptake into proteoliposomes with F-ATPase
T4 construct: gene SLC18A3; recombinant, expressed in insect cells or E. coli, Ni-NTA purified, co-reconstituted with bacterial F-ATPase in liposomes
T4 sequence (Q16572 1-532): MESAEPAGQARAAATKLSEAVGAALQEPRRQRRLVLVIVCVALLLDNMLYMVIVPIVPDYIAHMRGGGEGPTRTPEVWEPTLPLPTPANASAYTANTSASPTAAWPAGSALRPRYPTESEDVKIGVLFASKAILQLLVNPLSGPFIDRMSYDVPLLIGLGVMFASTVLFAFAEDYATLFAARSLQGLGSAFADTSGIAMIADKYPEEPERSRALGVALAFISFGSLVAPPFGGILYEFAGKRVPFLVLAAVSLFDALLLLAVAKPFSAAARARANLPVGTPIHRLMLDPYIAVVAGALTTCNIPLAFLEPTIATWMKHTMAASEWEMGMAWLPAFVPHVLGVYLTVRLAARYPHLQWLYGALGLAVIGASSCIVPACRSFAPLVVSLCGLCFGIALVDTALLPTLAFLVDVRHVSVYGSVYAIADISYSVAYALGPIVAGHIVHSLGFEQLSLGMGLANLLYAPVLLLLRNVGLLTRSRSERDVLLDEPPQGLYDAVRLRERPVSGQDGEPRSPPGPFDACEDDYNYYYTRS
Excerpt: inhibition of ATP-driven radiolabelled substrate uptake into proteoliposomes with F-ATPase on VAChT (vesicular acetylcholine transporter)

[5] = target: T5, VGAT (vesicular GABA transporter) (Rattus norvegicus, UniProt O35458); test: inhibition of valinomycin-evoked radiolabelled substrate uptake into proteoliposomes
T5 construct: gene Slc32a1; recombinant, expressed in insect cells or E. coli, Ni-NTA purified, reconstituted in asolectin liposomes
T5 sequence (O35458 1-525): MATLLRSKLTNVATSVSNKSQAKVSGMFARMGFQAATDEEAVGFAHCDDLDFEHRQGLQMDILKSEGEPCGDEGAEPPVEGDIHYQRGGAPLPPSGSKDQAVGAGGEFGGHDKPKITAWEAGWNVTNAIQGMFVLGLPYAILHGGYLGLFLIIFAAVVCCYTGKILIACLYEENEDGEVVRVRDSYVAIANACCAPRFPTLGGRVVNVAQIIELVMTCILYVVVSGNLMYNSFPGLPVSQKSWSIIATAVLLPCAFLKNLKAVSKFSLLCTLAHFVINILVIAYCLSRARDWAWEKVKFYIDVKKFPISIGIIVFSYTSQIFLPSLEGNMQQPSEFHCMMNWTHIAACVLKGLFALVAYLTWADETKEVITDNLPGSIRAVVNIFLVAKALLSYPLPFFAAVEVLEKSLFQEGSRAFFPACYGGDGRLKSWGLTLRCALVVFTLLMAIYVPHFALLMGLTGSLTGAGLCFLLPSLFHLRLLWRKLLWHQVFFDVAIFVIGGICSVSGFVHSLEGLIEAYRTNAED
Excerpt: inhibition of valinomycin-evoked radiolabelled substrate uptake into proteoliposomes on VGAT (vesicular GABA transporter)

[6] = read-out: IC50 (μmol/L) / Acetoacetate
[7] = read-out: IC50 (μmol/L) / Glyoxylate

T2 sequence (Q01827 whole entry): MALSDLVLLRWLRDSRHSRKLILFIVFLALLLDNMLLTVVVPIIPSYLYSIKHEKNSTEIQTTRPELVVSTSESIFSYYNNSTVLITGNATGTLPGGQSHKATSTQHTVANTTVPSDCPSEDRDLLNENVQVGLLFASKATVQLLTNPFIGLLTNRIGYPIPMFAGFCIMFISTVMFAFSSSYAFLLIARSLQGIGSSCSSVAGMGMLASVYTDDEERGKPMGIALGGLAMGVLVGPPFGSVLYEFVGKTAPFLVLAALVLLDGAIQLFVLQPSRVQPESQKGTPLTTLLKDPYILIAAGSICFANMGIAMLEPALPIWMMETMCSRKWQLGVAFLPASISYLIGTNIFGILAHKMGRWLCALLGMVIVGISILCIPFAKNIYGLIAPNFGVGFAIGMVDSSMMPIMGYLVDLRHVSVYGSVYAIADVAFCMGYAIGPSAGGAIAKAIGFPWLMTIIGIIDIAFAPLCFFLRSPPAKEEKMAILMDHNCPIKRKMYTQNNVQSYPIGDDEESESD

IC50 [1, 6] [µmol/L] | IC50 [2] [µM] | IC50 [3, 6] [µmol/L] | IC50 [4] [µM] | IC50 [5] [µM] | IC50 [1, 7] [µmol/L] | IC50 [3, 7] [µmol/L] | SMILES
130 | > 10000 | 190 | > 10000 | > 10000 | – | – | CC(=O)CC(=O)O [acetoacetate]
– | > 10000 | – | > 10000 | > 10000 | 52 | 4.1 | O=CC(=O)O [glyoxylate]
